Patent US20230312561A1, “SOLID FORMS OF (Z)-METHYL 3-(((4-(N-METHYL-2-(4-METHYLPIPERAZIN-1-YL)ACETAMIDO)PHENYL)AMINO)(PHENYL)METHYLENE)-2-OXO-2,3-DIHYDRO-1H-PYRROLO[2,3-B]PYRIDINE-6-CARBOXYLATE AND SALTS THEREOF” (Angion Biomedica Corp., priority 2020, published 2023)

Legend:
Type in all cases: physicochemical
[1] = Solid state stability under humid conditions (40° C./75% RH and 25° C./60% RH, two weeks)
Description: Stability of Compound 1 Hydrochloride Forms A, B, C, and D was evaluated under humid conditions. Samples of Forms A, B, C, and D were stored at 40° C./75% RH and 25° C./60% RH for a period of two weeks (loosely capped glass vials with approx. 200 mg solid). Solids were then re-analyzed using methods described herein. A summary of the results is provided in Table 12 (after storage at 25° C./60% RH) and Table 13 (after storage at 40° C./75% RH).

[2] = Solution state stability of Compound 1 Hydrochloride (HPLC purity in stressing media, 25° C.)
Description: The solution state stability of Compound 1 Hydrochloride Form A (Type 1 Lot) was examined under various storage conditions within a suitable glass vessel with stirrer bead agitation at 25° C. Compound 1 Hydrochloride stock solution ([…]) in HPLC diluent (acetonitrile/water, 1:1) was prepared and 5 mL placed within suitable glass vessels with stirrer bead agitation at 25° C. An aliquot of the appropriate stressing medium (5 mL) was added to achieve a sample concentration of approximately 0.5 mg/mL. The samples were agitated and stored at 25° C. and the solutions assessed for HPLC purity for stability at particular time points.

[3] = Dynamic Vapor Sorption (DVS) analysis with XRPD after equilibration
Description: Sorption isotherms were obtained using a Hiden Isochema moisture sorption analyzer (model IGAsorp), controlled by IGAsorp Systems Software V6.50.48. The sample was maintained at a constant temperature (25° C.) by the instrument controls. The humidity was controlled by mixing streams of dry and wet nitrogen, with a total flow of 250 mL·min^−1. The instrument was verified for relative humidity content by measuring three calibrated Rotronic salt solutions (10%, 50%, 88%). The weight change of the sample was monitored as a function of humidity by a microbalance (accuracy+/−0.005 mg). A defined amount of sample was placed in a tared mesh stainless steel basket under ambient conditions. A full experimental cycle typically consisted of three scans (sorption, desorption and sorption) at a constant temperature (25° C.) and 10% RH intervals over a 0-90% range (60 minutes for each humidity level). […]
This water content decreased as relative humidity decreased in the first desorption cycle.
The solid absorbed 3.39% water over the humidity range. […] The profile was similar to that of Form C in Example 7.2.

[4] = Biorelevant solubility (water, saline, FaSSIF, FeSSIF, FaSSGF, 37° C.)
Description: Due to pH drift in a previous study (see Example 12.1), in order to obtain a more accurate pH solubility evaluation, a study was designed using water, saline, FaSSIF (fasted state simulated intestinal fluid, pH 6.5), […] (fed state simulated intestinal fluid, pH 5.0), and FaSSGF (fasted state simulated gastric fluid, pH 1.6), which would ensure ending pH and buffer pH remained the same. […] The study design was successful, and all initial pH values were maintained. […] The pH was measured constantly during the addition up to the point of movement in the buffer, at which point additions were halted and the solutions or suspensions matured over 48 hours at 37° C. Samples were taken for solubility evaluation at the specified time-points and clarified through 0.45 micron filters and pH measured on the settled suspensions. Solubility was determined vs a 0.5 mg/mL reference. 35 mg portions were added to FaSSGF and FeSSIF maintaining solutions.

[5] = pH-dependent solubility (NaOH titration, pH 3-8); conditions: 25° C.
Description: A titration and solubility determination of Compound 1 Hydrochloride Form A (Type 1 Lot) was performed using NaOH over a pH range of 3-8. A solution was produced at 25° C. with magnetic agitation by combining 100 mg Compound 1 Hydrochloride Form A (Type 1 Lot) into 5 mL deionized water to give a concentration of 20 mg/mL within a clean glass vessel. […] The solution was slowly basified using 1.0 N, 0.1 N, and 0.01 N NaOH (with the lower concentrations being used to finely adjust pH close to the end point target pH and avoid overshooting) to achieve pH values of 4, 5, 5.5, 6, 7, and 8. […] The concentration of the test solution was lowered at pH 6 from 20 mg/mL to 5 mg/mL with repeat testing at each concentration to illustrate salt impact. Each pH value was allowed to equilibrate to stability prior to solubility evaluation via HPLC assessment of the clarified liquors. Dilution by 100× or 50× into the working range was performed using deionized water.

COC(=O)c1ccc2c(c1)NC(=O)/C2=C(\Nc1ccc(N(C)C(=O)CN2CCN(C)CC2)cc1)c1ccccc1.Cl [Compound 1 Hydrochloride Form A (Type 1 Lot)]
TGA After Storage: further loss above/post 200° C. ([1]; 25° C./60% RH): 100° C., further loss of 0.96%
TGA After Storage: total water content ([1]; 25° C./60% RH): of 10.9%
XRPD After Storage ([1]; 25° C./60% RH): Form A
TGA After Storage: further loss above/post 200° C. ([1]; 40° C./75% RH): 100° C., further loss of 1.05%
TGA After Storage: total water content ([1]; 40° C./75% RH): of 11.18%
TGA After Storage: weight reduction up to 100° C. ([1]; 40° C./75% RH): Weight reduction of 10.13% up to
XRPD After Storage ([1]; 40° C./75% RH): Form A
HPLC (%) ([2]; 1 M HCl, 1 h): 99.53%
HPLC (%) ([2]; 1 M HCl, 6 h): 99.29%
HPLC (%) ([2]; 1 M HCl, 24 h): 96.56%
HPLC (%) ([2]; 1 M HCl, 3 d): 95.63%
HPLC (%) ([2]; 1 M HCl, 7 d): 90.58%
HPLC (%) ([2]; 1 M NaOH, 1 h): 0.49%
HPLC (%) ([2]; 1 M NaOH, 6 h): 0.65%
HPLC (%) ([2]; 5% H2O2, 1 h): 80.39%
HPLC (%) ([2]; 5% H2O2, 6 h): 46.74%
HPLC (%) ([2]; 5% H2O2, 24 h): 0.42%
HPLC (%) ([2]; Control (water), 1 h): 99.68%
HPLC (%) ([2]; Control (water), 6 h): 99.69%
HPLC (%) ([2]; Control (water), 24 h): 99.54%
HPLC (%) ([2]; Control (water), 3 d): 99.42%
HPLC (%) ([2]; Control (water), 7 d): 99.50%
XRPD across the humidity range over the course of DVS analysis ([3]; 0-90% RH): Form A remained
water absorbed over the humidity range (DVS) ([3]; 25° C., 0-90% RH): 13.4 wt %
reversibility of water uptake (DVS) ([3]; as relative humidity decreased): reversible
water uptake (DVS) ([3]; high humidity, comparison stated in Example 7.3): above 13%
water uptake up to 30% RH (DVS) ([3]; up to 30% RH): 8.5 wt %
solubility in saline [4]: > 50 mg/mL
solubility in water [4]: > 50 mg/mL
Final pH ([4]; 0.9% NaCl): 3.03
Solubility (mg/mL) T = 1 h ([4]; 0.9% NaCl): >50 mg/mL
Solubility (mg/mL) T = 3 h ([4]; 0.9% NaCl): >50 mg/mL
Solubility (mg/mL) T = 6 h ([4]; 0.9% NaCl): >50 mg/mL
Solubility (mg/mL) T = 24 h ([4]; 0.9% NaCl): >50 mg/mL
Final pH ([4]; FaSSGF (starting pH 1.6)): 1.65
Solubility (mg/mL) T = 1 h ([4]; FaSSGF (starting pH 1.6)): >35 mg/mL
Solubility (mg/mL) T = 3 h ([4]; FaSSGF (starting pH 1.6)): >35 mg/mL
Solubility (mg/mL) T = 6 h ([4]; FaSSGF (starting pH 1.6)): >35 mg/mL
Solubility (mg/mL) T = 24 h ([4]; FaSSGF (starting pH 1.6)): >35 mg/mL
Final pH ([4]; FaSSIF (starting pH 6.5)): 6.13
Solubility (mg/mL) T = 1 h ([4]; FaSSIF (starting pH 6.5)): 2.41 mg/mL
Solubility (mg/mL) T = 3 h ([4]; FaSSIF (starting pH 6.5)): 3.38 mg/mL
Solubility (mg/mL) T = 6 h ([4]; FaSSIF (starting pH 6.5)): 3.74 mg/mL
Solubility (mg/mL) T = 24 h ([4]; FaSSIF (starting pH 6.5)): 5.12 mg/mL
Final pH ([4]; FeSSIF (starting pH 5.0)): 4.98
Solubility (mg/mL) T = 1 h ([4]; FeSSIF (starting pH 5.0)): >35 mg/mL
Solubility (mg/mL) T = 3 h ([4]; FeSSIF (starting pH 5.0)): >35 mg/mL
Solubility (mg/mL) T = 6 h ([4]; FeSSIF (starting pH 5.0)): >35 mg/mL
Solubility (mg/mL) T = 24 h ([4]; FeSSIF (starting pH 5.0)): >35 mg/mL
Final pH ([4]; Water): 3.04
Solubility (mg/mL) T = 1 h ([4]; Water): >50 mg/mL
Solubility (mg/mL) T = 3 h ([4]; Water): >50 mg/mL
Solubility (mg/mL) T = 6 h ([4]; Water): >50 mg/mL
Solubility (mg/mL) T = 24 h ([4]; Water): >50 mg/mL
solubility in FeSSIF ([4]; pH 5.0): > 50 mg/mL
initial pH reading of solution ([5]; 20 mg/mL in deionized water, stable over 10 minutes): 3.03
Solubility ([5]; pH 3.03, starting concentration 20 mg/mL): >20 mg/mL
Solubility ([5]; pH 4.0, starting concentration 20 mg/mL): >20 mg/mL
Solubility ([5]; pH 5.0, starting concentration 20 mg/mL): 16.0 mg/mL
Solubility ([5]; pH 5.5, starting concentration 20 mg/mL): 0.7 mg/mL
Solubility ([5]; pH 6.0, starting concentration 5 mg/mL): 0.06 mg/mL
Solubility ([5]; pH 6.0, starting concentration 20 mg/mL): 0.06 mg/mL
Solubility ([5]; pH 7.0, starting concentration 5 mg/mL): 0.05 mg/mL
Solubility ([5]; pH 8.0, starting concentration 5 mg/mL): 0.001 mg/mL
